# Reference: patent US20250171463A1 (BIOGEN MA INC., priority 2022, published 2025)
# Biological target: T1, EBP (Homo sapiens, UniProt Q15125)
# T1 construct: HEK293T cells were utilized as the source of EBP enzyme; endogenous in cells; host or cells: HEK293T
# Test: EBP Functional Assay (EBP immunoaffinity LC-MS assay)
# Assay type: biochemical
# Settings: EBP enzyme from HEK293T cells; 30 min with inhibitor, then zymosterol-d5, 37° C., 4 h; percent conversion to dehydrolathosterol-d5 by LC-APCI MRM MS
# Description: The EBP immunoaffinity (IA) LC-MS assay measures the potency of small molecule inhibitors of EBP by quantifying their concentration-dependent changes in the enzyme's substrate and product using liquid chromatography atmospheric pressure chemical ionization multiple reaction monitoring mass spectrometry (LC-APCI MRM MS). HEK293T cells were utilized as the source of EBP enzyme. The enzyme was incubated with the small molecule inhibitors at variable concentrations for 30 min. Deuterated form of EBP substrate, zymosterol-d5 (Avanti Polar Lipids, Cat #700068P-1 mg), was then added and the plate was incubated at 37° C. for 4 h. Finally, the sterol isomers were extracted and injected to LC-APCI MRM MS. MRM transition used for the quantification for both zymosterol and […] (substrate and product of EBP enzymatic reaction, respectively) is 372.3-203.2, CE 30 and DP 80 in positive ion mode. Percent conversion of the zymosterol-d5 to dehydrolathosterol-d5 was used to derive IC50 curves. Tasin-1 (1′-[(4-Methoxyphenyl)sulfonyl]-4-methyl-1,4′-bipiperidine, CAS 792927-06-1) was used as the reference small molecule inhibitor.
# Percent conversion versus the compound concentration data were fit to the following 4-parameter logistic model to generate IC50 curves: […]
# T1 sequence (Q15125 whole entry): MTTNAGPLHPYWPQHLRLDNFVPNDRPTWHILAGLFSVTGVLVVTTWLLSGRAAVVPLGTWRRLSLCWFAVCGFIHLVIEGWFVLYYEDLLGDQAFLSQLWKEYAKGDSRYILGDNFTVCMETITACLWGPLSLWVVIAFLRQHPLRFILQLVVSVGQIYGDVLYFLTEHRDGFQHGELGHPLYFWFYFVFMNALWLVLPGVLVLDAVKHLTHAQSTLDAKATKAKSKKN
row,SMILES,IC50
1,"Cc1ccc(S(=O)(=O)N2CC3(C[C@H]4CC[C@@H](C3)N4CC(C)(C)O)C2)c(C)c1 [Example 62, 1-((1′R,5′S)-1-((2,4-dimethylphenyl)sulfonyl)-8′-azaspiro[azetidine-3,3′-bicyclo[3.2.1]octan]-8′-yl)-2-methylpropan-2-ol]",< 100 nM
2,"Cc1nc(C(F)(F)F)ccc1S(=O)(=O)N1CC2(CN(C3(C)CCOCC3)C2)C1 [Example 77, 2-((2-methyl-6-(trifluoromethyl)pyridin-3-yl)sulfonyl)-6-(4-methyltetrahydro-2H-pyran-4-yl)-2,6-diazaspiro[3.3]heptane]",< 100 nM
3,"Cc1ccc(S(=O)(=O)N2CC3(CN(C4CCOCC4)C3)C2)c(C)c1 [Example 44, 2-((2,4-Dimethylphenyl)sulfonyl)-6-(tetrahydro-2H-pyran-4-yl)-2,6-diazaspiro[3.3]heptane]",< 100 nM
4,"CCc1nc(C(F)(F)F)ccc1S(=O)(=O)N1CC2(CN(C3CCOCC3)C2)C1 [Example 204, 2-((2-ethyl-6-(trifluoromethyl)pyridin-3-yl)sulfonyl)-6-(tetrahydro-2H-pyran-4-yl)-2,6-diazaspiro[3.3]heptane]",< 100 nM
5,Cc1nc(C(F)(F)F)ccc1S(=O)(=O)N1CC2(CN(CC3CCOC(C)(C)C3)C2)C1 (centres unmarked) [Example 186],100 to 250 nM
6,"COc1ccc(S(=O)(=O)N2CC3(CN(C4CCOCC4)C3)C2)c(Cl)n1 [Example 98, 2-((2-chloro-6-methoxypyridin-3-yl)sulfonyl)-6-(tetrahydro-2H-pyran-4-yl)-2,6-diazaspiro[3.3]heptane]",< 100 nM
7,"Cc1nc(C(C)(C)F)ccc1S(=O)(=O)N1CC2(CN(C3CCOCC3)C2)C1 [Example 93, 2-((6-(2-fluoropropan-2-yl)-2-methylpyridin-3-yl)sulfonyl)-6-(tetrahydro-2H-pyran-4-yl)-2,6-diazaspiro[3.3]heptane]",< 100 nM
8,"O=S(=O)(c1c(F)cc(OC(F)F)cc1F)N1CC2(CN(CC3CCOCC3)C2)C1 [Example 225, 2-((4-(difluoromethoxy)-2,6-difluorophenyl)sulfonyl)-6-((tetrahydro-2H-pyran-4-yl)methyl)-2,6-diazaspiro[3.3]heptane]",250 to 4000 nM
9,Cc1nc(C(F)(F)F)ccc1S(=O)(=O)N1CC2(CN(CC3CC3C#N)C2)C1 (centres unmarked) [Example 171],250 to 4000 nM
10,Cc1nc(C(F)(F)F)ccc1S(=O)(=O)N1CC2(CN(CC3CCOCC3)C2)C1 [Example 152],< 100 nM
11,COC(=O)C(C)(C)CCN1CC2(C1)CN(S(=O)(=O)c1ccc(C(F)(F)F)nc1C)C2 [Example 177],250 to 4000 nM
12,"Cc1nc(C(F)(F)F)ccc1S(=O)(=O)N1CC2(CN(CC3(C)CCOCC3)C2)C1 [Example 129, 2-((2-methyl-6-(trifluoromethyl)pyridin-3-yl)sulfonyl)-6-((4-methyltetrahydro-2H-pyran-4-yl)methyl)-2,6-diazaspiro[3.3]heptane]",< 100 nM
13,CCSCCCN1CC2(C1)CN(S(=O)(=O)c1ccc(C(F)(F)F)nc1C)C2 [Example 183],< 100 nM
14,Cc1cc(S(=O)(=O)N2CCC3(CCN(C4CCOCC4)C3)CC2)n(C)n1 [Example 37],100 to 250 nM
15,"Cc1nc(C(F)(F)F)ccc1S(=O)(=O)N1CC2(CN(C(C)C3COC3)C2)C1 (racemic) [Example 155, rac-2-((2-methyl-6-(trifluoromethyl)pyridin-3-yl)sulfonyl)-6-(1-(oxetan-3-yl)ethyl)-2,6-diazaspiro[3.3]heptane]",< 100 nM
16,"Cc1ccc(S(=O)(=O)N2CC3(CCN(C4CCOCC4)C3)C2)c(C)c1 [Example 52, 2-((2,4-Dimethylphenyl)sulfonyl)-6-(tetrahydro-2H-pyran-4-yl)-2,6-diazaspiro[3.4]octane]",< 100 nM
17,"CC1(CN2CCC3(CC2)CN(S(=O)(=O)c2ccc(OC(F)F)cc2)CCO3)COC1 [Example 20, 4-((4-(Difluoromethoxy)phenyl)sulfonyl)-9-((3-methyloxetan-3-yl)methyl)-1-oxa-4,9-diazaspiro[5.5]undecane]",100 to 250 nM
18,"O=S(=O)(c1ccc(OC(F)F)cc1)N1CCOC2(CCN(CC3CCOCC3)C2)C1 (centres unmarked) [Example 18, 9-((4-(Difluoromethoxy)phenyl)sulfonyl)-2-((tetrahydro-2H-pyran-4-yl)methyl)-6-oxa-2,9-diazaspiro[4.5]decane]",250 to 4000 nM
19,"O=S(=O)(c1ccc(OC(F)F)cc1)N1CCO[C@@]2(CCN([C@@H]3CCCOC3)C2)C1 (racemic) [Example 9, (±)—(R)-9-((4-(Difluoromethoxy)phenyl)sulfonyl)-2-((R)-tetrahydro-2H-pyran-3-yl)-6-oxa-2,9-diazaspiro[4.5]decane]",250 to 4000 nM

row,SMILES,IC50
1,Cn1nc(C(F)(F)F)cc1S(=O)(=O)N1CC2(CCN(C3CCOCC3)C2)C1 [Example 55],< 100 nM
2,Cc1cc(C)c(S(=O)(=O)N2CC3(CCN(C4CCOCC4)C3)C2)cn1 [Example 53],< 100 nM
3,"O=S(=O)(c1ccc(OC(F)F)cc1)N1CCC2(CC1)CN(C1CCOCC1)C2 [Example 32, 7-((4-(Difluoromethoxy)phenyl)sulfonyl)-2-(tetrahydro-2H-pyran-4-yl)-2,7-diazaspiro[3.5]nonane]",250 to 4000 nM
4,"COC(C)(C)CN1[C@@H]2CC[C@H]1CC1(C2)CN(S(=O)(=O)c2ccc(OC(F)F)cc2)C1 [Example 64, (1′R,5′S)-1-((4-(Difluoromethoxy)phenyl)sulfonyl)-8′-(2-methoxy-2-methylpropyl)-8′-azaspiro[azetidine-3,3′-bicyclo[3.2.1]octane]]",250 to 4000 nM
5,"Cc1nc(C(C)(F)F)ccc1S(=O)(=O)N1CC2(CN(C3CC4(COC4)C3)C2)C1 [Example 78, 2-((6-(1,1-difluoroethyl)-2-methylpyridin-3-yl)sulfonyl)-6-(2-oxaspiro[3.3]heptan-6-yl)-2,6-diazaspiro[3.3]heptane]",100 to 250 nM
6,"O=S(=O)(c1cnc(C(F)(F)F)cc1C1CC1)N1CC2(CN(CC3CCOCC3)C2)C1 [Example 122, 2-((4-cyclopropyl-6-(trifluoromethyl)pyridin-3-yl)sulfonyl)-6-((tetrahydro-2H-pyran-4-yl)methyl)-2,6-diazaspiro[3.3]heptane]",< 100 nM
7,"O=S(=O)(c1ccc(OC(F)(F)F)cc1F)N1CC2(CN(C3CCOCC3)C2)C1 [Example 214, 2-((2-fluoro-4-(trifluoromethoxy)phenyl)sulfonyl)-6-(tetrahydro-2H-pyran-4-yl)-2,6-diazaspiro[3.3]heptane]",250 to 4000 nM
8,"O=S(=O)(c1ccc(OC(F)F)cc1)N1CCO[C@@]2(CCN([C@H]3CCCOC3)C2)C1 (racemic) [Example 8, (±)—(R)-9-((4-(Difluoromethoxy)phenyl)sulfonyl)-2-((S)-tetrahydro-2H-pyran-3-yl)-6-oxa-2,9-diazaspiro[4.5]decane]",250 to 4000 nM
9,"Cn1nc2c(c1S(=O)(=O)N1CC3(CN(C4CCOCC4)C3)C1)CCC2 [Example 169, 2-methyl-3-((6-(tetrahydro-2H-pyran-4-yl)-2,6-diazaspiro[3.3]heptan-2-yl)sulfonyl)-2,4,5,6-tetrahydrocyclopenta[c]pyrazole]",250 to 4000 nM
10,"Cn1nc(C(F)(F)F)cc1S(=O)(=O)N1CC2(CN(C3(C)CCOCC3)C2)C1 [Example 76, 2-((1-methyl-3-(trifluoromethyl)-1H-pyrazol-5-yl)sulfonyl)-6-(4-methyltetrahydro-2H-pyran-4-yl)-2,6-diazaspiro[3.3]heptane]",< 100 nM
11,Cc1nc(C(F)(F)F)ccc1S(=O)(=O)N1CC2(CN(C3CCOC3)C2)C1 (centres unmarked) [Example 140],250 to 4000 nM
12,"Cc1ccc(S(=O)(=O)N2CCC3(CC2)CN(CC2(O)CCOCC2)C3)c(C)c1 [Example 34, 4-((7-((2,4-Dimethylphenyl)sulfonyl)-2,7-diazaspiro[3.5]nonan-2-yl)methyl)tetrahydro-2H-pyran-4-ol]",< 100 nM
13,"Cc1ncccc1S(=O)(=O)N1CC2(CN(C3CCOCC3)C2)C1 [Example 164, 2-((2-methylpyridin-3-yl)sulfonyl)-6-(tetrahydro-2H-pyran-4-yl)-2,6-diazaspiro[3.3]heptane]",250 to 4000 nM
14,"O=S(=O)(c1ccc(F)cc1F)N1CCOC2(CCN(C3CCOCC3)C2)C1 (centres unmarked) [Example 12, 9-((2,4-Difluorophenyl)sulfonyl)-2-(tetrahydro-2H-pyran-4-yl)-6-oxa-2,9-diazaspiro[4.5]decane]",250 to 4000 nM
15,Cc1nc(C(F)(F)F)ccc1S(=O)(=O)N1CC2(CN(C(C)C3CCCO3)C2)C1 (mixture of isomers) [Example 138],< 100 nM
16,"O=S(=O)(c1ccc(C(F)F)nc1C1CC1)N1CC2(CN(C3CC4(COC4)C3)C2)C1 [Example 119, 2-((2-cyclopropyl-6-(difluoromethyl)pyridin-3-yl)sulfonyl)-6-(2-oxaspiro[3.3]heptan-6-yl)-2,6-diazaspiro[3.3]heptane]",100 to 250 nM
17,"Cc1ccc(S(=O)(=O)N2CCC3(CC2)CN(CC2CCOCC2)C3)c(C)c1 [Example 35, 7-((2,4-Dimethylphenyl)sulfonyl)-2-((tetrahydro-2H-pyran-4-yl)methyl)-2,7-diazaspiro[3.5]nonane]",< 100 nM
18,"O=S(=O)(c1cc(C(F)(F)F)nn1CC1CC1)N1CC2(CN(C3CCOCC3)C2)C1 [Example 65, 2-((1-(cyclopropylmethyl)-3-(trifluoromethyl)-1H-pyrazol-5-yl)sulfonyl)-6-(tetrahydro-2H-pyran-4-yl)-2,6-diazaspiro[3.3]heptane]",250 to 4000 nM
19,Cc1cc(C(F)(F)F)nc(C)c1S(=O)(=O)N1CC2(CN(CC3COC3)C2)C1 [Example 104],100 to 250 nM
